Data published in patent US8759520B2, “Compounds for treating cancer” (Boehringer Ingelheim International GmbH, priority 2008, dated 2014).

target: Bcl-2 (Homo sapiens, UniProt P10415); assay: Homogeneous HTS assay for inhibitors of the Bcl-2 : Bak (72-87) BH3 domain interaction, fluorescence polarisation (2D-FIDA); assay type: binding; details: fluorescence polarisation, fluorescent labelled Bak BH3 domain derived peptide; read-out: IC50 [μM] Bcl-2
Description: FIG. 1 is a schematic drawing of the Bcl-2: Bak (72-87) interaction assay based on fluorescence polarisation.
The homogeneous HTS assay for inhibitors of the Bcl-2 is shown schematically in FIG. 1. BH3 domain interaction is based on fluorescence polarisation. The inherent rotational diffusion of the Bak BH3 domain derived fluorescent labelled peptide decreases upon binding to Bc1-2. This shift in rotational diffusion is quantitated using the two-dimensional fluorescence intensity distribution analysis (2D-FIDA; Kask et al. 2000, Biophys. J. 78: 1703-1713).
Two different BH3 domain derived peptide ligands were synthesised and subsequently fluorescently labelled: • a 16mer peptide covering amino acids 72-87 of the Bak protein; this peptide had been used by Wang and co-workers and Holinger and coworkers in their Bcl-2 protein binding studies; Wang and co-workers reported an equilibrium binding constant KD of ˜0.2 μM to Bcl-2 protein; • peptide sequence: GQVGRQLAIIGDDINR—N (Wang et al. 2002, Proc. Natl. Acad. Sci. U.S.A. 97: 7124-7129; Holinger et al. 1999, J. Biol. Chem. 274: 13298-13304).

Sequence of Bcl-2 (P10415 whole entry, species assumed, the tested form may be a part): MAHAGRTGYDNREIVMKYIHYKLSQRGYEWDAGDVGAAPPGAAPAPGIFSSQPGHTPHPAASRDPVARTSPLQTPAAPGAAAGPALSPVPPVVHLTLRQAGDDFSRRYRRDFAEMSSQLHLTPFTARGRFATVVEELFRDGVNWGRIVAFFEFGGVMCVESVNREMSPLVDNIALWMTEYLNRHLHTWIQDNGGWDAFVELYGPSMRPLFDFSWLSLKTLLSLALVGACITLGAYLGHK

Row | Structure (SMILES) | IC50 [µM]
1 | N=c1n(Cc2ccccc2)c2ccccc2n1Cc1ccccn1 [Compound 1, 1-Benzyl-3-pyridin-2-ylmethyl-1,3-dihydro-benzoimidazol-2-ylideneamine] | 11 to 100
2 | N=c1n(Cc2ccccc2)c2ccccc2n1Cc1cccnc1 [Compound 2, 1-Benzyl-3-pyridin-3-ylmethyl-1,3-dihydro-benzoimidazol-2-ylideneamine] | > 100
3 | N=c1n(Cc2ccccc2)c2ccccc2n1Cc1ccncc1 [Compound 3, 1-Benzyl-3-pyridin-4-ylmethyl-1,3-dihydro-benzoimidazol-2-ylideneamine] | > 100
4 | N=c1n(Cc2ccccc2)c2ccccc2n1CC1CCOCC1 [Compound 4, 1-Benzyl-3-(tetrahydro-pyran-4-ylmethyl)-1,3-dihydro-benzoimidazol-2-ylideneamine] | > 100
5 | N=c1n(CCCOc2ccc(F)cc2)c2ccccc2n1Cc1ccc(Br)cc1 [Compound 5, 1-(4-Bromo-benzyl)-3-[3-(4-fluoro-phenoxy)-propyl]-1,3-dihydro-benzoimidazol-2-ylideneamine] | < 10
6 | N=c1n(CCCOc2ccc(F)cc2)c2ccccc2n1Cc1cccc(Br)c1 [Compound 6, 1-(3-Bromo-benzyl)-3-[3-(4-fluoro-phenoxy)-propyl]-1,3-dihydro-benzoimidazol-2-ylideneamine] | 11 to 100
7 | N=c1n(CCSc2ccccc2)c2ccccc2n1Cc1ccc(Br)cc1 [Compound 7, 1-(4-Bromo-benzyl)-3-(2-phenylsulfanyl-ethyl)-1,3-dihydro-benzoimidazol-2-ylideneamine] | 11 to 100
8 | CCOC(=O)Cn1c(=N)n(CCCOc2ccc(F)cc2)c2ccccc21 [Compound 8, {3-[3-(4-Fluoro-phenoxy)-propyl]-2-imino-2,3-dihydro-benzoimidazol-1-yl}-acetic acid ethyl ester] | 11 to 100
9 | N=c1n(CCCOc2ccc(Cl)cc2)c2ccccc2n1Cc1ccncc1 [Compound 9, 1-[3-(4-Chloro-phenoxy)-propyl]-3-pyridin-4-ylmethyl-1,3-dihydro-benzoimidazol-2-ylideneamine] | > 100
10 | N=c1n(CCCOc2ccc(F)cc2)c2ccccc2n1Cc1cccc(Cl)c1 [Compound 10, 1-(3-Chloro-benzyl)-3-[3-(4-fluoro-phenoxy)-propyl]-1,3-dihydro-benzoimidazol-2-ylideneamine] | 11 to 100
11 | N=c1n(CCCOc2ccc(F)cc2)c2ccccc2n1Cc1ccc(Cl)c(Cl)c1 [Compound 11, 1-(3,4-Dichloro-benzyl)-3-[3-(4-fluoro-phenoxy)-propyl]-1,3-dihydro-benzoimidazol-2-ylideneamine] | 11 to 100
12 | N=c1n(CCCOc2ccc(Cl)cc2)c2ccccc2n1Cc1ccc(Br)cc1 [Compound 12, 1-(4-Bromo-benzyl)-3-[3-(4-chloro-phenoxy)-propyl]-1,3-dihydro-benzoimidazol-2-ylideneamine] | 11 to 100
13 | N=c1n(Cc2ccc(Br)cc2)c2ccccc2n1CC1COc2ccccc2O1 (centres unmarked) [Compound 13, 1-(4-Bromo-benzyl)-3-(2,3-dihydro-benzo[1,4]dioxin-2-ylmethyl)-1,3-dihydro-benzoimidazol-2-ylideneamine] | 11 to 100
14 | N=c1n(CCCOc2ccc([N+](=O)[O-])cc2)c2ccccc2n1Cc1ccc(Br)cc1 [Compound 14, 1-(4-Bromo-benzyl)-3-[3-(4-nitro-phenoxy)-propyl]-1,3-dihydro-benzoimidazol-2-ylideneamine] | 11 to 100
15 | COC(=O)c1cccc(Cn2c(=N)n(CCCOc3ccc(F)cc3)c3ccccc32)c1 [Compound 15, 3-{3-[3-(4-Fluoro-phenoxy)-propyl]-2-imino-2,3-dihydro-benzoimidazol-1-ylmethyl}-benzoic acid methyl ester] | < 10
16 | N=c1n(CCCOc2ccc(F)cc2)c2ccccc2n1Cc1ccc(-c2ccc(F)cc2)cc1 [Compound 16, 1-(4′-Fluoro-biphenyl-4-ylmethyl)-3-[3-(4-fluoro-phenoxy)-propyl]-1,3-dihydro-benzoimidazol-2-ylideneamine] | 11 to 100

Row | Structure (SMILES) | IC50 [µM]
17 | Cn1c(=N)n(Cc2ccc(N3CCN(Cc4ccccc4-c4ccccc4)CC3)cc2)c2ccccc21 [Compound 17, 1-[4-(4-Biphenyl-2-ylmethyl-piperazin-1-yl)-benzyl]-3-methyl-1,3-dihydro-benzoimidazol-2-ylideneamine] | 11 to 100
18 | N=c1n(Cc2ccccc2)c2ccccc2n1Cc1ccc(N2CCN(Cc3ccccc3-c3ccccc3)CC2)cc1 [Compound 18, 1-Benzyl-3-[4-(4-biphenyl-2-ylmethyl-piperazin-1-yl)-benzyl]-1,3-dihydro-benzoimidazol-2-ylideneamine] | < 10
19 | N=c1n(CCCOc2ccc(F)cc2)c2ccccc2n1Cc1ccc(N2CCN(Cc3ccc(Cl)cc3)CC2)cc1 [Compound 19, 1-{4-[4-(4-Chloro-benzyl)-piperazin-1-yl]-benzyl}-3-[3-(4-fluoro-phenoxy)-propyl]-1,3-dihydro-benzoimidazol-2-ylideneamine] | 11 to 100
20 | N=c1n(CCCOc2ccc(F)cc2)c2ccccc2n1Cc1ccc(N2CCN(Cc3ccccc3Cl)CC2)cc1 [Compound 20, 1-{4-[4-(2-Chloro-benzyl)-piperazin-1-yl]-benzyl}-3-[3-(4-fluoro-phenoxy)-propyl]-1,3-dihydro-benzoimidazol-2-ylideneamine] | < 10
21 | N=c1n(CCCOc2ccc(F)cc2)c2ccccc2n1Cc1ccc(N2CCN(Cc3cccc(Cl)c3)CC2)cc1 [Compound 21, 1-{4-[4-(3-Chloro-benzyl)-piperazin-1-yl]-benzyl}-3-[3-(4-fluoro-phenoxy)-propyl]-1,3-dihydro-benzoimidazol-2-ylideneamine] | < 10
22 | N=c1n(CCCOc2ccc(F)cc2)c2ccccc2n1Cc1ccc(N2CCN(Cc3ccccc3)CC2)cc1 [Compound 22, 1-[4-(4-Benzyl-piperazin-1-yl)-benzyl]-3-[3-(4-fluoro-phenoxy)-propyl]-1,3-dihydro-benzoimidazol-2-ylideneamine] | < 10
23 | N=c1n(CCCOc2ccc(F)cc2)c2ccccc2n1Cc1ccc(N2CCN(Cc3ccccc3-c3ccc(Cl)cc3)CC2)cc1 [Compound 24, 1-{4-[4-(4′-Chloro-biphenyl-2-ylmethyl)-piperazin-1-yl]-benzyl}-3-[3-(4-fluoro-phenoxy)-propyl]-1,3-dihydro-benzoimidazol-2-ylideneamine] | < 10
24 | N=c1n(CCCOc2ccc(F)cc2)c2ccccc2n1Cc1ccc(N2CCN(Cc3ccccc3-c3ccccc3)CC2)cc1 [Compound 25, 1-[4-(4-Biphenyl-2-ylmethyl-piperazin-1-yl)-benzyl]-3-[3-(4-fluoro-phenoxy)-propyl]-1,3-dihydro-benzoimidazol-2-ylideneamine] | < 10
25 | N=c1n(CCCOc2ccc(F)cc2)c2ccccc2n1Cc1cccc(N2CCN(Cc3ccccc3-c3ccccc3)CC2)c1 [Compound 26, 1-[3-(4-Biphenyl-2-ylmethyl-piperazin-1-yl)-benzyl]-3-[3-(4-fluoro-phenoxy)-propyl]-1,3-dihydro-benzoimidazol-2-ylideneamine] | < 10
26 | N=c1n(CCCOc2ccc(F)cc2)c2ccccc2n1Cc1cccc(N2CCN(Cc3ccccc3-c3ccc(Cl)cc3)CC2)c1 [Compound 27, 1-{3-[4-(4′-Chloro-biphenyl-2-ylmethyl)-piperazin-1-yl]-benzyl}-3-[3-(4-fluoro-phenoxy)-propyl]-1,3-dihydro-benzoimidazol-2-ylideneamine] | < 10
27 | N=c1n(CCCOc2ccccc2)c2ccccc2n1Cc1ccc(N2CCN(Cc3ccccc3-c3ccccc3)CC2)cc1 [Compound 28, 1-[4-(4-Biphenyl-2-ylmethyl-piperazin-1-yl)-benzyl]-3-(3-phenoxy-propyl)-1,3-dihydro-benzoimidazol-2-ylideneamine] | < 10
28 | N=c1n(CCCOc2ccccc2)c2ccccc2n1Cc1cccc(N2CCN(Cc3ccccc3-c3ccccc3)CC2)c1 [Compound 29, 1-[3-(4-Biphenyl-2-ylmethyl-piperazin-1-yl)-benzyl]-3-(3-phenoxy-propyl)-1,3-dihydro-benzoimidazol-2-ylideneamine] | < 10
29 | N=c1n(CCCOc2ccccc2)c2ccccc2n1Cc1ccc(N2CCN(Cc3ccccc3-c3ccc(Cl)cc3)CC2)cc1 [Compound 30, 1-{4-[4-(4′-Chloro-biphenyl-2-ylmethyl)-piperazin-1-yl]-benzyl}-3-(3-phenoxy-propyl)-1,3-dihydro-benzoimidazol-2-ylideneamine] | < 10
30 | CC1(C)CCC(c2ccc(Cl)cc2)=C(CN2CCN(c3cccc(Cn4c(=N)n(CCCOc5ccc(F)cc5)c5ccccc54)c3)CC2)C1 [Compound 31, 1-(3-{4-[2-(4-Chloro-phenyl)-5,5-dimethyl-cyclohex-1-enylmethyl]-piperazin-1-yl}-benzyl)-3-[3-(4-fluoro-phenoxy)-propyl]-1,3-dihydro-benzoimidazol-2-ylideneamine] | < 10
31 | CC1(C)CCC(c2ccc(Cl)cc2)=C(CN2CCN(c3ccc(Cn4c(=N)n(CCCOc5ccccc5)c5ccccc54)cc3)CC2)C1 [Compound 32, 1-(4-{4-[2-(4-Chloro-phenyl)-5,5-dimethyl-cyclohex-1-enylmethyl]-piperazin-1-yl}-benzyl)-3-(3-phenoxy-propyl)-1,3-dihydro-benzoimidazol-2-ylideneamine] | < 10
32 | N=c1n(CCSc2ccccc2)c2ccccc2n1Cc1ccc(N2CCN(Cc3ccccc3-c3ccc(Cl)cc3)CC2)cc1 [Compound 33, 1-{4-[4-(4′-Chloro-biphenyl-2-ylmethyl)-piperazin-1-yl]-benzyl}-3-(2-phenylsulfanyl-ethyl)-1,3-dihydro-benzoimidazol-2-ylideneamine] | < 10
